The values that follow come from patent US20170298056A1, “SMALL MOLECULE INHIBITORS OF HIV-1 ENTRY AND METHODS OF USE THEREOF” (Dana-Farber Cancer Institute, Inc., priority 2014, published 2017).

One data set deals with CEM #21 cells. Description: Viability assay, CEM#21 target cells. The data set is classed as cell-based. How it is done:
H-JRFL#1336 (effector) and H-Fluc4 (control) cells were grown in DMEM containing 10% FBS, 100 μg/ml streptomycin, 100 units/ml penicillin, 200 μg/ml G418, 1 μg/ml puromycin and 2 μg/ml doxycycline. H-JRFL#13 cells carry an HIV-1JR-FL env gene that is induced by growing the cells in the absence of doxycycline (Tet-Off expression system). H-Fluc4 cells, which carry a firefly luciferase gene that is induced in the absence of doxycycline, were used as specificity controls. Both cell lines were derived from HeLa cells and constitutively express the tetracycline-regulated transactivator (Tet-Off expression system). CEM#21 target cells were grown in RPMI containing 10% FBS, 100 μg/ml streptomycin, 100 units/ml penicillin and 1 μg/ml puromycin. […]
Viability Assay. […] The plate was equilibrated to room temperature, 15 μl of CellTiterGlo (Promega) was added to each well and luminescence was measured as described above. […] 30 μl (Cf2Th cells) or 100 μl (PBMC) of CellTiterGlo was added and luminescence was measured as described above.

The next data set has as its system HIV-1KB9. Description: Viral infection assay, dual-tropic isolate. Conditions: dual-tropic HIV-1KB9. The data set is classed as cell-based. How it is done:
Production of recombinant HIV-1 expressing luciferase. 293T cells were cotransfected with an Env expression plasmid, a firefly luciferase-expressing lentiviral vector (pHIVcc2.luc) and an HIV-1-based packaging plasmid (psPAX2, cat #11348, NIH AIDS Research and Reference Reagent Program) at a ratio of 1:6:3 using Effectene (Qiagen, Germantown, Md.). After 48 hours, the supernatant was collected, buffered with 50 mM Hepes pH 7.4 (final concentration) and centrifuged for 5 minutes at 750×g and 4° C. The virus-containing supernatant was used directly or frozen at −80° C.
Viral infection assay. Each test compound was serially diluted in DMSO in a 96-well B&W isoplate (PerkinElmer, Boston, Mass.) using an HP D300 Digital Dispenser, to a final volume of 450 nl. DMSO was used as a control. Viruses pseudotyped with a specific Env were added to each well and incubated briefly at room temperature. […] The activity of the firefly luciferase, which was used as a reporter protein in the system, was measured with a Centro LB 960 luminometer (Berthold Technologies, Oak Ridge, Tenn.). One hundred microliters of assay buffer (15 mM MgSO4, 15 mM KH2PO4/K2HPO4 pH 7.8, 1 mM ATP and 1 mM DTT) was injected to each well, followed by a 50 μl injection of 1 mM Dluciferin potassium salt (BD Pharmingen, San Jose, Calif.); luminescence was measured for 2 sec. […]

Regarding `O=C(N/N=C/c1ccc(O)cc1)Nc1cccc2nsnc12` [Compound 18A], in the data set with CEM #21 cells, the CC50 – broadly, the concentration giving 50% cytotoxicity – is 26.6 ± 2.1 µM. The inhibition of infection entry with HIV-1KB9 is reported as “relatively resistant to inhibition”.
